Test results taken from publication PMC8559926, “Design, synthesis and biological evaluation of N-oxide derivatives with potent in vivo antileishmanial activity” (PLoS ONE, 2021).
“And” between values parts separate entries of the source, which are not always exact repeats. Equal values may be shown once. Read-outs that look alike come from different tables or passages of the source.

Legend:
[1] = Quantification of nitrite by the Griess reaction (NO release); settings: compounds at 10^-4 M, 5 mM of L-Cys (1:50), 1 h, 37°C
Experimental: The levels of nitrite resulting from the oxidation of NO in the aqueous medium were quantified through the Griess reaction after incubation with an excess of L-cysteine (1:50) according to previously published methods. The experiments were performed in triplicate and repeated three times on different days. […] The results were expressed as a percentage of nitrite (% NO2^−; mol/mol). Statistical analysis was carried out using ANOVA followed by Tukey’s Multiple Comparison Test at a significance level of p < 0.05.
The ability of all synthesized compounds (4a-x) and (14a-g) to release NO was evaluated by indirect determination of NO2^− production. The compounds at 10^−4 M were incubated for 1 h at 37°C in the presence of L-cysteine (1:50) and the produced NO2^− was determined through Griess reaction (Table 1).

[2] = molecular target: T1, recombinant Leishmania cysteine protease LmCPB2.8ΔCTE (CPB) (Leishmania mexicana, UniProt P36400); assay: Enzymatic inhibition of recombinant CPB (Z-FR-AMC substrate); format: biochemical
T1 construct: The ORF that codes for the Leishmania mexicana CPB, lacking the C terminal extension (CPB2.8ΔCTE); made in house; host or cells: Pichia pastoris X-33
T1 sequence (P36400 126-341, stated change not applied): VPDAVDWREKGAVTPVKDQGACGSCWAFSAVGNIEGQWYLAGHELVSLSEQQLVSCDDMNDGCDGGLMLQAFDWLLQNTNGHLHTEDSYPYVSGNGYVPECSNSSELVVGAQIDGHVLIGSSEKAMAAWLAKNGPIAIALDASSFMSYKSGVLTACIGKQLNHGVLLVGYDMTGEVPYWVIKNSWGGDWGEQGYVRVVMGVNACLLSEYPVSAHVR
Experimental: The concentration of the active recombinant CPB expressed in Pichia pastoris supernatant was determined by active site titration with N-(trans-Epoxysuccinyl)-L-leucine 4-guanidinobutylamide E-64 (CalBiochem) that was found 1 μM. The active enzyme represented about 80% of the total recombinant enzyme.
Compounds were dissolved in DMSO to a final concentration of 20 μM. The assays were performed in dark 96 well-plates, containing 200 μL of 100 mM sodium acetate buffer (pH 5.5), 200 mM NaCl, 0.01% Triton-X100, 2 nM enzyme, various concentrations of inhibitor, and 5 μM of the substrate Z-FR-AMC (Calbiochem). The final concentration of DMSO was 1% (v/v). The enzyme was pre-incubated at 30°C for 2 minutes before the inhibitor was added, waited 2 minutes and after this incubation, the reaction was started by the addition of the substrate, Z-FR-AMC. The fluorescence was monitored at 380 nm excitation and 460 nm emission filters for 2 minutes at 30°C in an Infinite 200 PRO microplate reader (Tecan, Männedorf, Switzerland). The residual activity was measured by the ratio between enzyme + substrate and enzyme + inhibitor + substrate. […] Results were expressed in mean ± standard deviation of two independent replicates using Bioestat Software.

[3] = system: L. infantum intracellular amastigotes; assay: Anti-amastigote activity in infected murine peritoneal macrophages; format: cell-based; settings: Leishmania infantum, Peritoneal macrophage, 24 h, read-out: EC50 - Effective Concentration that kills 50% of L. infantum amastigote forms
Experimental: The antileishmanial activity against L. infantum intracellular amastigotes, according to the following methodology. […] Were used infected macrophages as negative control and amphotericin B as the positive control.
After incubation, cells were fixed with methanol and Giemsa stained. The effective concentration to 50% amastigotes death (EC) was obtained by counting 100 macrophages in duplicate, in two independent experiments. The values were obtained by non-linear regression on Bioestat® software, and results were expressed in mean ± standard deviation.

L. infantum [4] = assay: In vivo parasite load (LDU index) in L. infantum-infected BALB/c mice; settings: oral, twice a day for five days; for reduction of parasite burden in liver and spleen: 7.7 mg/kg/day
Experimental: To evaluate the in vivo antileishmanial efficacy of compound 4f, male BALB/c mice, 20 ± 4 g, 6 weeks-old (CEMIB-UNICAMP) were intraperitoneally inoculated with 100 μL (1x10^8 parasites) of infective promastigotes of L. infantum (MHOM/MA/67/ITMAP-263) at the stationary phase. After nine days post-infection, the animals were treated by oral gavage (100 μL per dose) twice daily for 5 days with a 12h interval between doses according to the dosages described below, and euthanized. […] Work solutions were daily prepared in PBS. Negative controls correspond to infected and non-treated mice. As a positive control, a group of mice received 7.7 mg/kg/day of miltefosine, and a group of uninfected and untreated mice (healthy animals) was used for the analysis. The compound and miltefosine were orally administered twice a day for five days. After treatment, the animals were euthanized and the treatment efficacy was assessed by measuring the parasite burden of the infected animals using the LDU index.
LDU index. After the euthanasia, mice´s liver and spleen were collected for parasite quantification. Tissues impression onto microscopy slides were made, followed by Giemsa-staining and examining under optical microscopy. The corresponding number of amastigotes per 1,000 nucleated cells/organ weight was expressed as LDU index according to Stauber (1958), Sousa-Batista (2018), and Kwofie (2019).

[5] = Toxicity for mice: plasma biochemical markers; format: in vivo, BALB/c mice; settings: for plasma creatinine: any group; for plasma creatinine / plasma total bilirubin levels: end of treatment; for plasma levels of AST, ALP, ALT, and creatinine: treated vs healthy groups; for plasma total bilirubin levels: treated vs infected untreated mice
Experimental: Toxicity for mice assays. The blood was collected in heparinized tubes and immediately centrifuged at 700×g for 10 min at 25°C to obtain plasma. Plasma levels of aspartate (AST), and alanine (ALT) transferases, alkaline phosphatase (ALP), creatinine, urea, and total bilirubin were determined at the end of treatment using commercial kits (Labtest Diagnóstica S.A., Brazil). The assays were performed according to Velasquez et al. (2017) and the data are expressed as average ± SEM. The statistical differences between groups were evaluated using a one-way analysis of variance, followed by the Student-Newman-Keuls multiple comparison test using GraphPad Prism software. Differences were considered significant when P values were […].

[6] = molecular target: T1, recombinant Leishmania cysteine protease LmCPB2.8ΔCTE (CPB); settings: read-out: IC50 - Inhibition of CPB (rCPB2.8); prototype/reference compounds; cited from earlier work
[7] = system: L. infantum intracellular amastigotes; design: method as in PMID 24913171; settings: prototype/reference compounds, cited from earlier work
[8] = system: murine peritoneal macrophages; design: method as in PMID 24913171; settings: prototype/reference compounds; cited from earlier work
L. infantum [9] = system: L. infantum; design: method as in PMID 28866421; settings: L. infantum-infected hamsters, cited from earlier work

Compound | % NO2- (mol/mol) [1] | IC50 [2] | EC50 [3] | parasite reduction (L. infantum [4]; 2.56 mg/kg/day) | reduction of parasite burden in liver and spleen (L. infantum [4]) | plasma creatinine [5] | plasma levels of AST, ALP, ALT, and creatinine [5] | plasma total bilirubin levels [5] | side effect (biochemical markers) ([5]; up to the highest dose 7.7 mg/kg/day) | melting point | IC50 [6] | SI - Selective Index (CC50/EC50) [7] | EC50 ([7]; read-out: EC50 L. infantum amastigote forms) | CC50 [8] | decrease of parasite load (L. infantum [9]; 15 days, intraperitoneal) | reduction of parasite load in the liver (L. infantum [9]) | reduction of parasite load in the spleen (L. infantum [9]) | toxic effects (L. infantum [9])
NC(=O)N/N=C/c1ccc(Oc2no[n+]([O-])c2-c2ccccc2)cc1 [Compound 4f, (E)-4-(4-((2-carbamoylhydrazono)methyl)phenoxy)-3-phenyl-1,2,5-oxadiazole 2-oxide] | 9.1 ± 0.7 % | 4.5 ± 0.1 µM | 3.6 ± 0.1 µM | 77% | 90% and ~ 90% | no alterations | similar | no significant alterations | without causing any evident side effect | – | – | – | – | – | – | – | – | –
CCCCCCCCCCCCCCCCOP(=O)([O-])OCC[N+](C)(C)C [miltefosine, reference compound] | – | – | – | – | ~ 90% | no alterations | similar | no significant alterations | – | – | – | – | – | – | – | – | – | –
NC(=O)N/N=C/c1ccc(OCc2no[n+]([O-])c2C(N)=O)cc1 [Compound 4n, (E)-3-carbamoyl-4-((4-((2-carbamoylhydrazono)methyl)phenoxy)methyl)-1,2,5-oxadiazole 2-oxide] | 12.0 ± 1.4 % | 13.7 ± 1.8 µM | > 10 µM | – | – | – | – | – | – | 228 to 230 °C | – | – | – | – | – | – | – | –
O=C(N/N=C/c1ccc(Oc2no[n+]([O-])c2S(=O)(=O)c2ccccc2)cc1)c1cccc(O)c1 [Lapdesf14e, (E)-4-(4-((2-(3-hydroxybenzoyl)hydrazono)methyl)phenoxy)-3-(phenylsulfonyl)-1,2,5-oxadiazole 2-oxide] | 26% and 26.0 ± 1.6 % | – | – | – | – | – | – | – | – | – | 3.1 ± 0.4 µM | 66.4 | 3.1 ± 0.1 µM | 208.3 ± 0.2 µM | 50% | 54.2% | 49.9% | without toxic effects
